# “And” between values parts separate entries of the source, which are not always exact repeats. Equal values may be shown once. “Also recorded” adds a separate entry of the source. Read-outs that look alike come from different tables or passages of the source.
# Key:
# TKU015 nattokinase [1] = assay type: biochemical, Pseudomonas sp. TKU015; details: for Effect on TKU015 nattokinase activity: metal ion or inhibitor added
# nattokinase = details: ion added; cited from earlier work
# chitosanase = assay type: biochemical, Pseudomonas sp. TKU015
# Description: (§1) In order to produce chitinase and chitosanase, generally, TKU015 is cultured in a liquid shaking culture medium (pH 8) including 0.5% by weight of SSP, 0.1% by weight of K2HPO4 and 0.05% by weight of MgSO4.7H2O for 3 days at 30° C. The obtained fermented supernatant is purified with ammonia sulfate precipitation, DEAE-Sepharose chromatography, Phenyl-Sepharose chromatography, and Sephacryl S-100 chromatography in sequence, and a chitinase and a chitosanase is obtained.
# (§2) Pseudomonas sp. TKU015 is cultured in a liquid medium (100 mL/250 mL), which employ shrimp shell powder as carbon/nitrogen source, for 2-3 days at 30° C., and chitinase, chitosanase and nattokinase activity are tested in the medium.
# chitinase = experiment: Influence of metal ions and organic solvents on TKU015 chitinase activity; assay type: biochemical, Pseudomonas sp. TKU015
# Description: as §1, §2
# TKU015 nattokinase [2] = experiment: Influence of organic solvents on TKU015 nattokinase activity at different temperature (ten days); assay type: biochemical, Pseudomonas sp. TKU015; details: mixed with solvent, 100% represents 15 FU/mL
# Description: (§3) With respect to thermal stability, TKU015 nattokinase is mixed with different solvents and then respectively placed for ten days at 25° C. and 4° C.
# TKU015 nattokinase [3] = experiment: Influence of organic solvents on activity of TKU015 nattokinase; assay type: biochemical, Pseudomonas sp. TKU015; details: in the presence of organic solvent; for Relative activity(%) TKU015 nattokinase: 100% represents 20 FU/mL
# Description: Protease activity of the supernatant obtained from culture medium of chitinase (cultured in a liquid shaking culture medium (pH 8) including 0.5% by weight of SSP, 0.1% by weight of K2HPO4 and 0.05% by weight of MgSO4.7H2O for 3 days at 30° C.) is respectively tested using casein and N-succinyl-Ala-Ala-Pro-Phe-pNa as substrate.
# as §3
# TKU015 nattokinase [4] = experiment: Influence of surfactants on TKU015 nattokinase activity; assay type: biochemical, Pseudomonas sp. TKU015; details: for Relative activity (%) Nattokinase: 100% represents 18 FU/mL
# [5] = biological target: Pseudomonas aeruginosa PseA protease (Pseudomonas aeruginosa, UniProt P14756); details: cited from earlier work; for Effect of solvent on PseA protease activity: in the presence of solvent
# san-ai protease = details: in the presence of solvent; cited from earlier work
# PST-01 protease = PST-01 protease (Pseudomonas aeruginosa, UniProt P14756); details: in the presence of solvent; cited from earlier work
# [6] = concentration 5 mM, 100% represents 19 FU/mL
# [7] = after placed for 10 days, temperature not given
# [8] = after placed for 10 days at 25° C.
# [9] = after placed for 10 days at 4° C.
# [10] = concentration 10 mM, 100% represents 19 FU/mL
# Pseudomonas aeruginosa PseA protease, sequence (P14756 198-498): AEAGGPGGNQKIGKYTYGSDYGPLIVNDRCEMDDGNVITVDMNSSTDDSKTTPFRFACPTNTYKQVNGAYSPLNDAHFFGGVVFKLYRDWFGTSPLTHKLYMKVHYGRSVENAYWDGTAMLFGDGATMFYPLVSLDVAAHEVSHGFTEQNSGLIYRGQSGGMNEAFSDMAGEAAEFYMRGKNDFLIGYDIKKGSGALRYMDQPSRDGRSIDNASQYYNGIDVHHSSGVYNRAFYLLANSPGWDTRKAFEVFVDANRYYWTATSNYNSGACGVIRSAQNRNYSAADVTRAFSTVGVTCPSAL
# PST-01 protease, sequence (P14756 198-498): as above
compound,measurement,setting,value
[Mg+2] [Mg^2+],Relative activity (%) Nattokinase,TKU015 nattokinase [1]; [6],104%
same,Effect on TKU015 nattokinase activity,TKU015 nattokinase [1],does not
same,Effect of metal ion on nattokinase activity,nattokinase,increased activity
[Zn+2] [Zn^2+],Relative activity (%) Nattokinase,TKU015 nattokinase [1]; [6],94%
[Ca+2] [Ca^2+],Relative activity (%) Nattokinase,TKU015 nattokinase [1]; [6],108%
same,Effect on TKU015 nattokinase activity,TKU015 nattokinase [1],does not
same,Effect of metal ion on nattokinase activity,nattokinase,increased activity
CC#N [acetonitrile],Effect of organic solvent on chitosanase activity,chitosanase,can affect activity
same,Organic solvent resistance of chitinase,chitinase; [7],can affect activity
same,Relative activity(%) TKU015 nattokinase,TKU015 nattokinase [2]; placed ten days at 4 ° C.,90%
same,Relative activity(%) TKU015 nattokinase,TKU015 nattokinase [2]; placed ten days at 25 ° C.,80%
same,Relative activity(%) TKU015 nattokinase,TKU015 nattokinase [3],88%
Tween 40,Relative activity (%) Nattokinase,TKU015 nattokinase [4]; surfactant 0.5 % (v/v),94%
same,Relative activity (%) Nattokinase,TKU015 nattokinase [4]; surfactant 1 % (v/v),70%
same,Relative activity (%) Nattokinase,TKU015 nattokinase [4]; surfactant 2 % (v/v),82%
CC(C)O [isopropylalcohol],Relative activity(%) TKU015 nattokinase,TKU015 nattokinase [2]; placed ten days at 4 ° C.,115%
same,Relative activity(%) TKU015 nattokinase,TKU015 nattokinase [2]; placed ten days at 25 ° C.,120%
same,Relative activity(%) TKU015 nattokinase,TKU015 nattokinase [3],68%
CO [methanol],Relative activity(%) TKU015 nattokinase,TKU015 nattokinase [2]; placed ten days at 4 ° C.,116%
same,Relative activity(%) TKU015 nattokinase,TKU015 nattokinase [2]; placed ten days at 25 ° C.,90%
same,Effect of organic solvent on TKU015 nattokinase activity,TKU015 nattokinase [3],do not affect
same,Relative activity(%) TKU015 nattokinase,TKU015 nattokinase [3],96%
C[S+](C)[O-] [DMSO],Relative activity(%) TKU015 nattokinase,TKU015 nattokinase [2]; placed ten days at 4 ° C.,90%
same,Relative activity(%) TKU015 nattokinase,TKU015 nattokinase [2]; placed ten days at 25 ° C.,94%
same,Relative activity(%) TKU015 nattokinase,TKU015 nattokinase [3],80%
[Cu+2] [Cu^2+],Relative activity (%) Nattokinase,TKU015 nattokinase [1]; [6],95%
same,Effect on TKU015 nattokinase activity,TKU015 nattokinase [1],does not
same,Effect of metal ions and PMSF on chitosanase activity,chitosanase,inhibited
same,Effect of metal ion on nattokinase activity,nattokinase,increased activity
CCO [ethanol],Relative activity(%) TKU015 nattokinase,TKU015 nattokinase [2]; placed ten days at 4 ° C.,114%
same,Relative activity(%) TKU015 nattokinase,TKU015 nattokinase [2]; placed ten days at 25 ° C.,88%
same,Relative activity(%) TKU015 nattokinase,TKU015 nattokinase [3],65%
xylene,Organic solvent resistance of chitosanase,chitosanase; [8],don't affect activity
same,Organic solvent resistance of chitinase,chitinase; [8],don't affect activity
same,Relative activity(%) TKU015 nattokinase,TKU015 nattokinase [2]; placed ten days at 4 ° C.,126%
same,Relative activity(%) TKU015 nattokinase,TKU015 nattokinase [2]; placed ten days at 25 ° C.,96%
same,Effect of organic solvent on TKU015 nattokinase activity,TKU015 nattokinase [3],do not affect
same,Relative activity(%) TKU015 nattokinase,TKU015 nattokinase [3],96%
CCCCCCCCCCCCOS(=O)(=O)[O-].[Na+] [SDS],Remaining activity of PseA protease,[5]; concentration 0.1%,61%
same,TKU015 nattokinase remaining activity,"TKU015 nattokinase [4]; concentration 0.5, 1, or 2 mM (one value in text)",50%
same,Relative activity (%) Nattokinase,TKU015 nattokinase [4]; surfactant 0.5 mM,66%
same,Relative activity (%) Nattokinase,TKU015 nattokinase [4]; surfactant 1 mM,56%
same,Relative activity (%) Nattokinase,TKU015 nattokinase [4]; surfactant 2 mM,56%
"CN(C)C=O [DMF, N,N-dimethylformamide]",Effect of solvent on san-ai protease activity,san-ai protease,doesn't change
same,Organic solvent resistance of chitosanase,chitosanase; [8],don't affect activity
same,Organic solvent resistance of chitinase,chitinase; [8],don't affect activity
same,Effect of solvent on PseA protease activity,[5],doesn't change
same,Relative activity(%) TKU015 nattokinase,TKU015 nattokinase [2]; placed ten days at 4 ° C.,120%
same,Relative activity(%) TKU015 nattokinase,TKU015 nattokinase [2]; placed ten days at 25 ° C.,98%
same,Effect of solvent on PST-01 protease activity,PST-01 protease,doesn't change
same,Relative activity(%) TKU015 nattokinase,TKU015 nattokinase [3],80% and 64%
[Al+3] [Al^3+],Relative activity (%) Nattokinase,TKU015 nattokinase [1]; [6],101%
O=C(O)CN(CCN(CC(=O)O)CC(=O)O)CC(=O)O [EDTA],Relative activity (%) Nattokinase,TKU015 nattokinase [1],117%
CCOC(C)=O [ethyl acetate],Relative activity(%) TKU015 nattokinase,TKU015 nattokinase [2]; placed ten days at 4 ° C.,118%
same,Relative activity(%) TKU015 nattokinase,TKU015 nattokinase [2]; placed ten days at 25 ° C.,92%
same,Relative activity(%) TKU015 nattokinase,TKU015 nattokinase [3],70%
[Ba+2] [Ba^2+],Relative activity (%) Nattokinase,TKU015 nattokinase [1]; [6],109%
CC(C)=O [acetone],Organic solvent resistance of chitosanase,chitosanase; [9],can affect activity
same,Organic solvent resistance of chitinase,chitinase; [7],can affect activity
same,Relative activity(%) TKU015 nattokinase,TKU015 nattokinase [2]; placed ten days at 4 ° C.,128%
same,Relative activity(%) TKU015 nattokinase,TKU015 nattokinase [2]; placed ten days at 25 ° C.,108%
same,Activity of PST-01 protease,PST-01 protease,200%
same,Effect of solvent on PST-01 protease activity,PST-01 protease,doesn't change
same,Relative activity(%) TKU015 nattokinase,TKU015 nattokinase [3],150%
Triton X-100,Effect on PseA protease activity,[5]; concentration 0.1% or 0.5%,doesn't change
same,Relative activity (%) Nattokinase,TKU015 nattokinase [4]; surfactant 0.5 % (v/v),160%
same,Relative activity (%) Nattokinase,TKU015 nattokinase [4]; surfactant 1 % (v/v),206%
same,Relative activity (%) Nattokinase,TKU015 nattokinase [4]; surfactant 2 % (v/v),344%
[Mn+2] [Mn^2+],Relative activity (%) Nattokinase,TKU015 nattokinase [1]; [6],102%
same,Effect of metal ions and PMSF on chitosanase activity,chitosanase,inhibited
same,Effect of metal ions on chitinase activity,chitinase,inhibited; also recorded: prohibited
CCCCCC [hexane],Relative activity(%) TKU015 nattokinase,TKU015 nattokinase [3],66%
CC(C)CCO [isoamylalcohol],Relative activity(%) TKU015 nattokinase,TKU015 nattokinase [2]; placed ten days at 4 ° C.,88%
same,Relative activity(%) TKU015 nattokinase,TKU015 nattokinase [2]; placed ten days at 25 ° C.,100%
same,Relative activity(%) TKU015 nattokinase,TKU015 nattokinase [3],60%
[Fe+2] [Fe^2+],Relative activity (%) Nattokinase,TKU015 nattokinase [1]; [6],232%
same,Relative activity (%) Nattokinase,TKU015 nattokinase [1]; [10],156%
same,Effect on TKU015 nattokinase activity,TKU015 nattokinase [1],improve activity; also recorded: increase its activity
same,Effect of metal ions on chitinase activity,chitinase,inhibited; also recorded: prohibited
Cc1ccccc1 [toluene],Organic solvent resistance of chitosanase,chitosanase; [8],don't affect activity
same,Organic solvent resistance of chitinase,chitinase; [8],don't affect activity
same,Effect of solvent on PseA protease activity,[5],doesn't change
same,Relative activity(%) TKU015 nattokinase,TKU015 nattokinase [2]; placed ten days at 4 ° C.,120%
same,Relative activity(%) TKU015 nattokinase,TKU015 nattokinase [2]; placed ten days at 25 ° C.,100%
same,Effect of solvent on PST-01 protease activity,PST-01 protease,doesn't change
same,Effect of organic solvent on TKU015 nattokinase activity,TKU015 nattokinase [3],do not affect
same,Relative activity(%) TKU015 nattokinase,TKU015 nattokinase [3],106%
CCOCC [ethyl ether],Organic solvent resistance of chitosanase,chitosanase; [9],can affect activity
same,Organic solvent resistance of chitinase,chitinase; [7],can affect activity
same,Relative activity(%) TKU015 nattokinase,TKU015 nattokinase [2]; placed ten days at 4 ° C.,98%
same,Relative activity(%) TKU015 nattokinase,TKU015 nattokinase [2]; placed ten days at 25 ° C.,70%
same,Inhibition of TKU015 nattokinase activity,TKU015 nattokinase [3],50%
same,Relative activity(%) TKU015 nattokinase,TKU015 nattokinase [3],43%
butanol,Relative activity(%) TKU015 nattokinase,TKU015 nattokinase [2]; placed ten days at 4 ° C.,125%
same,Relative activity(%) TKU015 nattokinase,TKU015 nattokinase [2]; placed ten days at 25 ° C.,85%
same,Relative activity(%) TKU015 nattokinase,TKU015 nattokinase [3],70%
"O=S(=O)(F)Cc1ccccc1 [PMSF, phenylmethanesulfonyl fluoride]",Relative activity (%) Nattokinase,TKU015 nattokinase [1]; [6],45%
same,Relative activity (%) Nattokinase,TKU015 nattokinase [1]; [10],0%
same,Effect on TKU015 nattokinase activity,TKU015 nattokinase [1],completely inhibited
same,Effect of metal ions and PMSF on chitosanase activity,chitosanase,inhibited

# — patent publication US8093035B2, “Pseudomonas sp. strain and method of producing chitinase, chitosanase and nattokinase using the same” (Tamkang University, priority 2008, dated 2012)
